Laboratory results published in publication PMC3965624 (Life sciences, 2014).

Biological target: NTSR1 (Homo sapiens, UniProt P30989)
Experiment: […]-Tyr3-NTS radioligand displacement on intact NCI-H1299 cells
Format: cell-based

NTSR1, sequence (P30989 whole entry): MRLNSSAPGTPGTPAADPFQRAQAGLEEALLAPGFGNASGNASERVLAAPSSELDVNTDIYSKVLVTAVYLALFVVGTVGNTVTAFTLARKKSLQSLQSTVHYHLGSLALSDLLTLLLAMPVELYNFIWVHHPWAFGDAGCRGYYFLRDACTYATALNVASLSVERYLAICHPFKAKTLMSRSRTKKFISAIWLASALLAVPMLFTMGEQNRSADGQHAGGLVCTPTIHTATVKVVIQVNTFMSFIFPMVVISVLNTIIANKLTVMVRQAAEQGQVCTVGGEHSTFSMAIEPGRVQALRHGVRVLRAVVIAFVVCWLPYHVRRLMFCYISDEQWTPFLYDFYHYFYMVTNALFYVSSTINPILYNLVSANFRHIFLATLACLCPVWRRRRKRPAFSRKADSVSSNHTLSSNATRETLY

COc1cccc(OC)c1-c1cc(C(=O)NC2(C(=O)O)C3CC4CC(C3)CC2C4)nn1-c1ccnc2cc(Cl)ccc12 (stereo not shown) [SR48692]
IC50: 0.205 µM
